Measurements as given in PubChem BioAssay (NCI).
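Values below derive from 48-hour exposures of cells grown in 96-well plates, with endpoints linearly interpolated between the two concentrations bracketing the appropriate inhibition level. TGI: concentration producing complete growth inhibition.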

Tests used:
Experiment in all cases: growth of human tumour cells (NCI), 48 h
786-0 renal = tested on: 786-0 renal
A498 renal = tested on: A498 renal
A549 NSCLC = tested on: A549 NSCLC
ACHN renal = tested on: ACHN renal
BT-549 breast = tested on: BT-549 breast
CCRF-CEM leukemia = tested on: CCRF-CEM leukemia
COLO 205 colon = tested on: COLO 205 colon
DU-145 prostate = tested on: DU-145 prostate
EKVX NSCLC = tested on: EKVX NSCLC
HCC-2998 colon = tested on: HCC-2998 colon
HCT-116 colon = tested on: HCT-116 colon
HCT-15 colon = tested on: HCT-15 colon
HL-60(TB) leukemia = tested on: HL-60(TB) leukemia
HOP-62 NSCLC = tested on: HOP-62 NSCLC
HOP-92 NSCLC = tested on: HOP-92 NSCLC
HS 578T breast = tested on: HS 578T breast
HT29 colon = tested on: HT29 colon
IGROV1 ovarian = tested on: IGROV1 ovarian
K-562 leukemia = tested on: K-562 leukemia
KM12 colon = tested on: KM12 colon
LOX IMVI melanoma = tested on: LOX IMVI melanoma
M14 melanoma = tested on: M14 melanoma
MALME-3M melanoma = tested on: MALME-3M melanoma
MCF7 breast = tested on: MCF7 breast
MDA-MB-231 breast = tested on: MDA-MB-231 breast
MDA-MB-435 = tested on: MDA-MB-435
MDA-N = tested on: MDA-N
MOLT-4 leukemia = tested on: MOLT-4 leukemia
NCI-H226 lung = tested on: NCI-H226 lung
NCI-H23 lung = tested on: NCI-H23 lung
NCI-H460 lung = tested on: NCI-H460 lung
NCI-H522 lung = tested on: NCI-H522 lung
NCI/ADR-RES ovarian = tested on: NCI/ADR-RES ovarian
OVCAR-5 ovarian = tested on: OVCAR-5 ovarian
OVCAR-8 ovarian = tested on: OVCAR-8 ovarian
RPMI-8226 leukemia = tested on: RPMI-8226 leukemia
RXF 393 renal = tested on: RXF 393 renal
SF-268 CNS = tested on: SF-268 CNS
SF-295 CNS = tested on: SF-295 CNS
SF-539 CNS = tested on: SF-539 CNS
SK-MEL-2 melanoma = tested on: SK-MEL-2 melanoma
SK-MEL-28 melanoma = tested on: SK-MEL-28 melanoma
SK-MEL-5 melanoma = tested on: SK-MEL-5 melanoma
SK-OV-3 ovarian = tested on: SK-OV-3 ovarian
SN12C renal = tested on: SN12C renal
SNB-19 CNS = tested on: SNB-19 CNS
SNB-75 CNS = tested on: SNB-75 CNS
SR leukemia = tested on: SR leukemia
SW-620 colon = tested on: SW-620 colon
T-47D breast = tested on: T-47D breast
TK-10 renal = tested on: TK-10 renal
U251 CNS = tested on: U251 CNS
UACC-257 melanoma = tested on: UACC-257 melanoma
UACC-62 melanoma = tested on: UACC-62 melanoma
UO-31 renal = tested on: UO-31 renal
CAKI-1 renal = tested on: CAKI-1 renal
OVCAR-3 ovarian = tested on: OVCAR-3 ovarian
OVCAR-4 ovarian = tested on: OVCAR-4 ovarian
PC-3 prostate = tested on: PC-3 prostate

With C/C(=N\NC(=S)N1CCN(c2ccccn2)CC1)c1cccc(C)n1 the TGI (786-0 renal) was 3.31 µM, the TGI (A498 renal) was 6.33 µM and the TGI (A549 NSCLC) was 18.5 µM. It also gave a TGI (ACHN renal) of 12.7 µM, a TGI (BT-549 breast) of 18 µM and a TGI (CCRF-CEM leukemia) greater than 100 µM. It also gave a TGI (COLO 205 colon) of 11.3 µM, a TGI (DU-145 prostate) of 14.6 µM and a TGI (EKVX NSCLC) of 10.5 µM. For the same compound, the TGI (HCC-2998 colon) was 24.8 µM, the TGI (HCT-116 colon) was 10.5 µM and the TGI (HCT-15 colon) was 16 µM. The TGI (HL-60(TB) leukemia) was 17.6 µM, the TGI (HOP-62 NSCLC) was 20.1 µM and the TGI (HOP-92 NSCLC) was 14.3 µM. The TGI (HS 578T breast) was 43.5 µM, the TGI (HT29 colon) was 14.5 µM and the TGI (IGROV1 ovarian) was 4.01 µM. It also gave a TGI (K-562 leukemia) greater than 38.2 µM, a TGI (KM12 colon) of 18 µM and a TGI (LOX IMVI melanoma) of 17.8 µM. For the same compound, the TGI (M14 melanoma) was 9.23 µM, the TGI (MALME-3M melanoma) was 19.3 µM and the TGI (MCF7 breast) was 12.4 µM. The TGI (MDA-MB-231 breast) was 13.1 µM, the TGI (MDA-MB-435) was 17.4 µM and the TGI (MDA-N) was 17.8 µM. The TGI (MOLT-4 leukemia) was 53.2 µM, the TGI (NCI-H226 lung) was 9.38 µM and the TGI (NCI-H23 lung) was 21.8 µM. The TGI (NCI-H460 lung) was 11.9 µM, the TGI (NCI-H522 lung) was 0.59 µM and the TGI (NCI/ADR-RES ovarian) was 27.5 µM. For the same compound, the TGI (OVCAR-5 ovarian) was 13.3 µM, the TGI (OVCAR-8 ovarian) was 14.1 µM and the TGI (RPMI-8226 leukemia) was 12.6 µM. The TGI (RXF 393 renal) was 4.98 µM, the TGI (SF-268 CNS) was 19.9 µM and the TGI (SF-295 CNS) was 12.3 µM. The TGI (SF-539 CNS) was 6.12 µM, the TGI (SK-MEL-2 melanoma) was 6.78 µM and the TGI (SK-MEL-28 melanoma) was 25.3 µM. The TGI (SK-MEL-5 melanoma) was 7.06 µM, the TGI (SK-OV-3 ovarian) was 21.4 µM and the TGI (SN12C renal) was 21.9 µM. For the same compound, the TGI (SNB-19 CNS) was 19.9 µM, the TGI (SNB-75 CNS) was 12.5 µM and the TGI (SR leukemia) was greater than 100 µM. The TGI (SW-620 colon) was 14.2 µM, the TGI (T-47D breast) was 35 µM and the TGI (TK-10 renal) was 21.5 µM. For the same compound, the TGI (U251 CNS) was 17.5 µM, the TGI (UACC-257 melanoma) was 16.8 µM and the TGI (UACC-62 melanoma) was 7.16 µM. It also gave a TGI (UO-31 renal) of 30.6 µM.

COc1nc(=O)n(C2CC(F)C(CO)O2)cc1C (stereo not drawn) was tested, and the TGI (786-0 renal) was greater than 100 µM, the TGI (A549 NSCLC) was greater than 100 µM and the TGI (ACHN renal) was greater than 100 µM. The TGI (BT-549 breast) was greater than 100 µM, the TGI (CAKI-1 renal) was greater than 100 µM and the TGI (CCRF-CEM leukemia) was greater than 100 µM. It also gave a TGI (COLO 205 colon) greater than 100 µM, a TGI (DU-145 prostate) greater than 100 µM and a TGI (EKVX NSCLC) greater than 100 µM. For the same compound, the TGI (HCC-2998 colon) was greater than 100 µM, the TGI (HCT-116 colon) was greater than 100 µM and the TGI (HCT-15 colon) was greater than 100 µM. It also gave a TGI (HL-60(TB) leukemia) greater than 100 µM, a TGI (HOP-62 NSCLC) greater than 100 µM and a TGI (HS 578T breast) greater than 100 µM. The TGI (HT29 colon) was greater than 100 µM, the TGI (IGROV1 ovarian) was greater than 100 µM and the TGI (K-562 leukemia) was greater than 100 µM. It also gave a TGI (KM12 colon) greater than 100 µM, a TGI (LOX IMVI melanoma) greater than 100 µM and a TGI (M14 melanoma) greater than 100 µM. It also gave a TGI (MALME-3M melanoma) greater than 100 µM, a TGI (MCF7 breast) greater than 100 µM and a TGI (MDA-MB-231 breast) greater than 100 µM. It also gave a TGI (MDA-MB-435) greater than 100 µM, a TGI (MDA-N) greater than 100 µM and a TGI (MOLT-4 leukemia) greater than 100 µM. It also gave a TGI (NCI-H226 lung) greater than 100 µM, a TGI (NCI-H23 lung) greater than 100 µM and a TGI (NCI-H460 lung) greater than 100 µM. The TGI (NCI-H522 lung) was greater than 100 µM, the TGI (NCI/ADR-RES ovarian) was greater than 100 µM and the TGI (OVCAR-3 ovarian) was greater than 100 µM. It also gave a TGI (OVCAR-4 ovarian) greater than 100 µM, a TGI (OVCAR-8 ovarian) greater than 100 µM and a TGI (RPMI-8226 leukemia) greater than 100 µM. It also gave a TGI (SF-268 CNS) greater than 100 µM, a TGI (SF-295 CNS) greater than 100 µM and a TGI (SF-539 CNS) greater than 100 µM. The TGI (SK-MEL-28 melanoma) was greater than 100 µM, the TGI (SK-MEL-5 melanoma) was greater than 100 µM and the TGI (SN12C renal) was greater than 100 µM. For the same compound, the TGI (SNB-19 CNS) was greater than 100 µM, the TGI (SR leukemia) was greater than 100 µM and the TGI (SW-620 colon) was greater than 100 µM. For the same compound, the TGI (T-47D breast) was greater than 100 µM, the TGI (TK-10 renal) was greater than 100 µM and the TGI (U251 CNS) was greater than 100 µM. The TGI (UACC-257 melanoma) was greater than 100 µM, the TGI (UACC-62 melanoma) was greater than 100 µM and the TGI (UO-31 renal) was greater than 100 µM.

O=c1ccc2[n+]([O-])c3ccc(O)cc3oc-2c1 showed a TGI (786-0 renal) of 27.2 µM, a TGI (A498 renal) greater than 100 µM and a TGI (A549 NSCLC) of 20.6 µM. For the same compound, the TGI (ACHN renal) was greater than 37.7 µM, the TGI (BT-549 breast) was 25.9 µM and the TGI (CAKI-1 renal) was greater than 100 µM. The TGI (CCRF-CEM leukemia) was greater than 73 µM, the TGI (COLO 205 colon) was 30.1 µM and the TGI (DU-145 prostate) was 30.8 µM. For the same compound, the TGI (EKVX NSCLC) was greater than 100 µM, the TGI (HCC-2998 colon) was greater than 100 µM and the TGI (HCT-116 colon) was greater than 100 µM. For the same compound, the TGI (HCT-15 colon) was greater than 47.9 µM, the TGI (HL-60(TB) leukemia) was greater than 66.8 µM and the TGI (HOP-62 NSCLC) was 67 µM. For the same compound, the TGI (HOP-92 NSCLC) was greater than 100 µM, the TGI (HS 578T breast) was greater than 54.1 µM and the TGI (HT29 colon) was 53.9 µM. For the same compound, the TGI (IGROV1 ovarian) was greater than 100 µM, the TGI (K-562 leukemia) was greater than 100 µM and the TGI (KM12 colon) was greater than 100 µM. It also gave a TGI (LOX IMVI melanoma) of 13.8 µM, a TGI (M14 melanoma) of 25.4 µM and a TGI (MALME-3M melanoma) of 18.3 µM. It also gave a TGI (MCF7 breast) of 18.8 µM, a TGI (MDA-MB-231 breast) greater than 92.3 µM and a TGI (MDA-N) of 3.37 µM. The TGI (MOLT-4 leukemia) was 57 µM, the TGI (NCI-H226 lung) was greater than 66.8 µM and the TGI (NCI-H23 lung) was 11.4 µM. For the same compound, the TGI (NCI-H460 lung) was 38.7 µM, the TGI (NCI-H522 lung) was 36.6 µM and the TGI (NCI/ADR-RES ovarian) was 67.5 µM. For the same compound, the TGI (OVCAR-3 ovarian) was greater than 80.3 µM, the TGI (OVCAR-4 ovarian) was 97 µM and the TGI (OVCAR-5 ovarian) was 56.6 µM. It also gave a TGI (OVCAR-8 ovarian) greater than 91.6 µM, a TGI (PC-3 prostate) greater than 100 µM and a TGI (RPMI-8226 leukemia) greater than 87 µM. It also gave a TGI (RXF 393 renal) greater than 100 µM, a TGI (SF-268 CNS) greater than 100 µM and a TGI (SF-295 CNS) of 21.6 µM. The TGI (SF-539 CNS) was greater than 100 µM, the TGI (SK-MEL-2 melanoma) was 31.5 µM and the TGI (SK-MEL-28 melanoma) was 22.6 µM. The TGI (SK-MEL-5 melanoma) was 13.8 µM, the TGI (SK-OV-3 ovarian) was greater than 100 µM and the TGI (SN12C renal) was 36.7 µM. It also gave a TGI (SNB-75 CNS) greater than 40.7 µM, a TGI (SR leukemia) greater than 64 µM and a TGI (SW-620 colon) of 48 µM. For the same compound, the TGI (T-47D breast) was greater than 100 µM, the TGI (TK-10 renal) was greater than 85.2 µM and the TGI (U251 CNS) was greater than 100 µM. It also gave a TGI (UACC-257 melanoma) of 26 µM, a TGI (UACC-62 melanoma) of 7.35 µM and a TGI (UO-31 renal) of 8 µM.
